Where a SMILES comes first, the peptide text is derived from it. [ ]: non-standard residue; d: D form. The star is where a group is joined. X1 = CC[N+](CC)(CC(=O)Nc1c(C)cccc1C)Cc1cccc(C(=O)*)c1; Aha = [N-]=[N+]=NCC[C@H](N)C(=O)O
Biological target: T1, MMP-8 (Homo sapiens, UniProt P22894)
T1 construct: purchased EMD Millipore Corporation (Billerica, MA)
Assay: MMP-8 cleavage of soluble PCL conjugates (HPLC decrease of main peak)
Assay type: biochemical
Settings: 900 ng/mL MMP-8, 60 min; p < 0.001, t-test
Experimental: Pro-MMPs (e.g., MMP-8, MMP-1, or MMP-9; used at 0.1 mg/mL and >100.0 mU/mg based on the manufacturer’s information) were activated with p-aminophenylmercuric acetate (APMA) (8). For that, a 10 mM stock solution of APMA was freshly prepared in 0.1 M NaOH and a 10:1 (v/v) ratio of the respective proenzyme and the APMA solution (MMP:APMA) was incubated for 3 h at 37 °C. The activity was confirmed using the MMP-8 detection kit (QuickZyme Biosciences, Leiden, the Netherlands). A stock solution (90 µg/mL) of the activated MMP was prepared (used for cleavage studies on the PCL or the fully assembled microparticle-PCL-tastant setup (sensor), in MMP-8 buffer (200 mM NaCl, 50 mM Tris-HCl, 5 mM CaCl2, 1 µM ZnCl2, 0.05% Brij 35 at pH 6.8–7.0). All MMP experiments are described in detail in the Supplementary Methods. […]
in water ( v/v)) and eluent B (0.1 % TFA in 2:3 water-acetonitrile (v/v)) and a gradient from 33 to 80% elu ent B within 30 minutes. UV absorption was r ead at λ = 280 nm or 220 nm. After freezing the samples at -80 °C, fr eeze- drying was performed on a Christ Alpha 1 -4 de vi ce (Martin Christ Gefriertrocknungs anlagen, Osterode am Harz, G e r ma n y) at a desublimers ’ te mperature of - 60 ° C, pressure of 1.030 mbar and processing temperature of 19 °C.
Pro-MMPs (e. g. MMP -8, MMP -1 or MMP-9; adapted to 0.1 mg/mL and > 100.0 mU/mg based on manufacturer information and when appropriate) were activated with APMA 8. For that, a 10 mM stock solution of APMA in 0.1 M NaOH was freshly prepared and a 10:1 (v/v) ratio of the r especti ve proenzyme and APMA solution (MMP:APMA) was incubated for 3 h at 37 °C. The activity was conf ir med using the MMP-8 detection kit (Q uic kZ ym e® Biosciences, Leiden, Netherlands). A stock solution (90 µg/mL) of the activated MMP was prepared (used for cleavage studies on the pr ot eas e-cleavable linker (PCL; e.g. Figure 2) or the fully assemb led microparticle -PCL- t ast ant setup (sensor; e.g. Figure 3) , in MMP -8 buffer (200 mM NaCl, 50 mM Tris-H Cl, 5 mM C aC l2, 1 µM ZnCl2, 0.05 % Brij35 at pH 6.8- 7.0). A ll MMP -8 exp eriments wer e performed as follo ws. 25 µg of the sensor ( see chap ter : Peptide-coupling to beads (Sensor)) in 100 µL MMP-buffer or 1 mg of FP LC -purified and lyophilized PCL as described dissolved 2 mL M MP -buffer resulting in a final concentration of 0.5 mg/ mL substrate was used. […]
Figure 2A , 3, 4B ). […]
(sensor) in co mpar ison to negative controls (the negative controls for the PCL an d sensor exper i men ts were b y incubation without MMP under otherwise identical conditions). The relative d ecreas e of the PCL’s ma in peak was char act er ized by HPLC (PCL) or of the sensor’s fluorescence b y FACS (sensor) in comparison to control. […]

T1 sequence (P22894 101-467): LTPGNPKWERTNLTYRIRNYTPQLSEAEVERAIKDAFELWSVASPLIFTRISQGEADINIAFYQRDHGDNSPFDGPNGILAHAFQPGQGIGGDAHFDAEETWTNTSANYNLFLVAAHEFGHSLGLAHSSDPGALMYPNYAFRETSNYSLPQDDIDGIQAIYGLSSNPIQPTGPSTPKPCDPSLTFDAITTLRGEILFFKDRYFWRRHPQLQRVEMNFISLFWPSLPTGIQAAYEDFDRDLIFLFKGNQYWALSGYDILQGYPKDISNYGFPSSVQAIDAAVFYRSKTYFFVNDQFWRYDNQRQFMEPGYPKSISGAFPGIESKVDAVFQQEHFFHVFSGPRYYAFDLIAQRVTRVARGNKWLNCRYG

- Cleavage by MMP-8 compared with the PCL carboxyfluorescein conjugate (ID #1b): significantly better
Structure (SMILES): CC[C@H](C)[C@H](NC(=O)CNC(=O)[C@H](CCC(N)=O)NC(=O)[C@@H]1CCCN1C(=O)CNC(=O)c1cccc(C[N+](CC)(CC)CC(=O)Nc2c(C)cccc2C)c1)C(=O)N[C@@H](C)C(=O)NCC(=O)N[C@@H](CCC(N)=O)C(=O)N[C@@H](CCN=[N+]=[N-])C(=O)N[C@@H](CCC(N)=O)C(=O)O [ID #1c] (X1-GPQGIAGQ[Aha]Q-OH)

— PMC5557808 (Nature Communications, 2017)
